This note sets out measurements from US12162843B2, “High-purity thermostable crystal form of substituted 3-isoxazolidinone compound, preparation method therefor and application thereof” (ZHEJIANG ZHUJI UNITED CHEMICALS CO., LTD., priority 2019, dated 2024).

A short description of this data set: Stability experiment of the orthorhombic crystal (PXRD before and after storage). Type of data set: physicochemical. As to conditions: high-temperature (60±2° C.) oven, 90±5% humidity, 4500±5001 ux light intensity, 10 days, samples on 5th and 10th days. The protocol: A further object of the application is to investigate stability of the orthorhombic crystal of the 2-[(2,4-dichlorophenyl)methyl]-4,4-dimethyl-3-isoxazolidinone compound (Formula I). The orthorhombic crystal is stored in a high-temperature (60±2° C.) oven, in a 90±5% humidity condition, and under 4500±5001 ux light intensity for 10 days, respectively, during which samples are collected on the 5th and 10th days for a PXRD analysis.
A PXRD diffractometer (X′Pert PRO, PNAlytical, Netherlands) is employed to collect the following specific data: Cu anode=40 kV, 150 mA, 2θ scanning range=0°˜45°, scanning speed=8°/min, step size=0.02°, divergence slit (DS)=1°, anti-scattering slit=(SS) 1°, and receiving slit (RS)=0.15 mm.
The crystals of the 2-[(2,4-dichlorophenyl)methyl]-4,4-dimethyl-3-isoxazolidinone compound (Formula I) obtained in embodiments 3, 4, 5, and 6 are respectively placed in a high-temperature (60±2° C.) oven, in a 90±5% humidity condition, and under 4500±5001 ux light intensity for 10 days. Samples are collected on the 5th and 10th days for the PXRD analysis.

As to `CC1(C)CON(Cc2ccc(Cl)cc2Cl)C1=O` [orthorhombic crystal, 2-[(2,4-dichlorophenyl)methyl]-4,4-dimethyl-3-isoxazolidinone], the “stability of the crystal form (PXRD before and after storage)” value is “stable crystal form under high temperature, humidity and light intensity conditions”. For the same compound, the “stability of the crystal form (PXRD before and after storage)” value (listed as orthorhombic crystals) is “remain stable under high temperature, high humidity, and light intensity”.
